Reference: PubChem BioAssay AID624029 (Broad Institute, 2012)
Active and inactive are the calls of the source.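 How the source made its calls: active means compounds lowering HDL uptake fluorescence with a fitted half-maximal potency at most twice the top tested dose; inconclusive means flat partial inhibition of 30 to 70% or an unreliable fit; inactive means the rest.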

Biological target: Scavenger receptor class B member 1 (Mus musculus) (UniProt Q61009)
Assay: blockers of DiI-HDL lipid transfer via SR-BI – cell-based, ldlA[mSR-BI] CHO, DiI fluorescence, dry powder, set 10, dose response (AID 624029)
Conditions: CHO ldlA[mSR-BI] DiI-HDL uptake fluorescence, 3 h

Scavenger receptor class B member 1 (Mus musculus), sequence (Q61009 whole entry, looked up): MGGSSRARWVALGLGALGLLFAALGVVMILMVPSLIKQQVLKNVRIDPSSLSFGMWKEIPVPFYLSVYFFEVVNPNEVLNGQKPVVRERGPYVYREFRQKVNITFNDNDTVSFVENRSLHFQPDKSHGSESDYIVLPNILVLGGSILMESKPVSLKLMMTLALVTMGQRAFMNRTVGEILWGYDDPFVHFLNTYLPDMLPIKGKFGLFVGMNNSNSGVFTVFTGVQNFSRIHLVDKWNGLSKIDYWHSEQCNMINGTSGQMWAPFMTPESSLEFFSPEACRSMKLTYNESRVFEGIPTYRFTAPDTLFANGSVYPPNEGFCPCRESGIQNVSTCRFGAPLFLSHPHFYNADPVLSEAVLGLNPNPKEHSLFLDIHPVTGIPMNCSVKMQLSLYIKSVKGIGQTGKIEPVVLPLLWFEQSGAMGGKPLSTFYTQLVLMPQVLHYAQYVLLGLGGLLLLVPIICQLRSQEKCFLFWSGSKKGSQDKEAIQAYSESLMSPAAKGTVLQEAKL

Structure (SMILES)	AC50 [nM]
CC(C)NC(=O)Nc1ccc2c(c1)C(=O)N([C@H](C)CO)C[C@@H](C)[C@H](CN(C)S(=O)(=O)c1ccc(Cl)cc1)O2	293

Same assay, conditions: CHO ldlA[mSR-BI] DiI-HDL uptake fluorescence, 3 h; at 35 µM (top of the series)

Structure (SMILES)	activity change, negative = inhibition
CC(C)NC(=O)Nc1cccc2c1O[C@@H](CN(C)S(=O)(=O)c1ccc(Cl)cc1)[C@H](C)CN([C@H](C)CO)C2=O	inactive
CC(C)NC(=O)Nc1ccc2c(c1)CC(=O)N([C@H](C)CO)C[C@@H](C)[C@H](CN(C)S(=O)(=O)c1ccc(Cl)cc1)O2	inactive
C=CCOC(=O)N(C)C[C@@H]1Oc2ccc(NC(=O)NC(C)C)cc2C(=O)N([C@H](C)CO[Si](C)(C)C(C)(C)C)C[C@H]1C	inactive
C[C@@H]1CN([C@H](C)CO)C(=O)c2cc(NC(=O)Nc3ccc(F)cc3)ccc2O[C@H]1CN(C)S(=O)(=O)c1ccc(Cl)cc1	inactive
CC(C)NC(=O)Nc1ccc2c(c1)C(=O)N([C@H](C)CO[Si](C)(C)C(C)(C)C)C[C@@H](C)[C@H](CN(C)S(=O)(=O)c1ccc(Cl)cc1)O2	inactive
C=CCOC(=O)N(C)C[C@@H]1Oc2ccc(NC(=O)OCC3c4ccccc4-c4ccccc43)cc2C(=O)N([C@H](C)CO)C[C@H]1C	inactive
CNC[C@@H]1Oc2ccc(NC(=O)NC(C)C)cc2C(=O)N([C@H](C)CO[Si](C)(C)C(C)(C)C)C[C@H]1C	inactive
